Here are results for 1 substance from patent USRE38046E1, “Enhancement of the cellular immune response” (Biomira, Inc., priority 1986, dated 2003).

One assay concerns DTH effector cells. Description: Local transfer of DTH: antigen-primed spleen/T cells co-injected with triggering antigen into foot pad, net DTH swelling. It counts as in vivo, mice.
The next assay deals with TA3Ha cells. Description: Priming with antigen, challenge 2-3 days later with live TA3Ha cells, survival. It counts as in vivo, mice. An excerpt: Groups of five mice at a time were primed with specific doses of T-alpha (TF) (Ta), T-beta (Tb) (asialo-GM1 disaccharide) and Tn S-Tags. After 2-3 days, they were challenged with 3×10^3 live TA3Ha cells.
Groups of five mice were primed with specific doses of epi. After 2-3 days they were challenged with 3′10^3 live TA3Ha cells.

Turning to Epiglycanin, the DTH reaction result in the assay with DTH effector cells (cells primed with the priming Ag, triggering Ag Fuc) is “not to those carbohydrate determinants which are not represented on epiglycanin”; in the assay on DTH effector cells (cells primed with the priming Ag, triggering Ag Ta, listed as epi), “reaction was with the T alpha, T beta and Tn determinants”; in the assay on DTH effector cells (cells primed with the priming Ag, triggering Ag Tb, listed as epi), “reaction was with the T alpha, T beta and Tn determinants”; in the assay on DTH effector cells (cells primed with the priming Ag, triggering Ag Tn, listed as epi), “reaction was with the T alpha, T beta and Tn determinants”; in the assay on DTH effector cells (triggering antigen Epi-M (epi linked to SEPHAROSE microspheres)), “induced a specific DTH response”; in the assay on DTH effector cells (triggering antigen irradiated TA3Ha cells) it was “induced a specific DTH response”. In addition, the “In Vivo Protection: Number of animals alive at 4 weeks” value is 1/20 in the assay on TA3Ha cells (Dose of Ag 0.1 ug); 5/20 in the assay on TA3Ha cells (Dose of Ag 0.5 ug); 8/20 with TA3Ha cells (Dose of Ag 1.0 ug); 8/15 with TA3Ha cells (Dose of Ag 5.0 ug); 7/20 in the assay with TA3Ha cells (Dose of Ag 10.0 ug). The “No. alive (at d. 9)” value is 2/5 in the assay with TA3Ha cells (priming dose 0.2 ug); 4/5 in the assay with TA3Ha cells (priming dose 1 ug); 4/5 in the assay with TA3Ha cells (priming dose 2 ug); 0/4 in the assay on TA3Ha cells (priming dose 10 ug); 1/5 in the assay on TA3Ha cells (priming dose 20 ug); 1/5 in the assay on TA3Ha cells (priming dose 100 ug). The Survival ave. in the assay with TA3Ha cells (priming dose 0.2 ug) came to 33.8 days; with TA3Ha cells (priming dose 1 ug), 44.2 days; in the assay with TA3Ha cells (priming dose 2 ug) it was 25.2 days; in the assay with TA3Ha cells (priming dose 10 ug) it was 22.3 days; in the assay on TA3Ha cells (priming dose 20 ug), 29.0 days; in the assay with TA3Ha cells (priming dose 100 ug) it was 25.5 days. In addition, the “protection against TA3Ha tumor cells” value in the assay with TA3Ha cells (summary of Table 3) is listed as “did provide protection”.
